Source: publication PMC9551036, “A selective and orally bioavailable VHL-recruiting PROTAC achieves SMARCA2 degradation in vivo” (Nature Communications, 2022)
≈ marks a conversion by molar mass, not a printed value. Where “and” joins values, the source holds several entries; their conditions need not be identical. Equal entries are not always repeated. Where two headings read alike, the source gives them in different places.

Assays:
Solubility testing = assay type: physicochemical; settings: for solubility at 24 h: buffer, kinetic from dmso stock
Protocol: Dilution into a 1:1 mixture of acetonitrile and water was used as reference. After 24 h, the incubations were filtrated, and the filtrate was analyzed by LC-UV.

[1] = target: VCB: PROTAC: SMARCA4^BD ternary complex (Homo sapiens, UniProt P40337+P51532); experiment: SPR ternary complex measurement, VCB immobilised, 10 µM SMARCA4^BD present; assay type: binding; design: P51532, residues 1448–1569 with additional N-terminal SM residues; His6 (TEV site) (N, cleaved yes); GST (TEV site) (N, cleaved yes); made in house; host or cells: SMARCA4^BD: Escherichia coli BL21(DE3); settings: for Kd: SPR; for alpha: cooperativity, SMARCA4, ratio of KD values measured in the same run
Protocol: SPR data were acquired on Biacore 8K or T200 instruments (Cytiva). Target proteins were immobilised at 25 °C on CM5 chips by amine coupling (EDC/NHS, Cytiva) in HBS-P+ running buffer (pH 7.4), containing 2 mM TCEP. […] The reference surface was subsequently deactivated using 1 M ethanolamine. […] Biotinylated VCB was prepared as previously described[27]: in brief, the complex was mixed 1:1 with EZ-Link NHS–PEG4–biotin (Thermo Scientific) and incubated at room temperature for 1 h. Unreacted NHS-biotin was removed using a PD-10 desalting column (Cytiva) into 20 mM HEPES, pH 7.5, 150 mM sodium chloride and 1 mM DTT. The reference surface was generated by deactivating the EDC/NHS-treated surface with 1 M ethanolamine. All interaction experiments were done at 6 °C in running buffer (20 mM TRIS, pH 8.3, 150 mM potassium chloride, 2 mM magnesium chloride, 2 mM TCEP, 0.005% TWEEN 20, 1% dimethyl sulfoxide). For ternary complex measurements, a sensor chip surface with VCB immobilised was used (preparation as described above). Experiments were run in dual-inject mode with 10 µM SMARCA present during the injection and dissociation phase. Sensorgrams from reference surfaces and blank injections were subtracted from the raw data prior to data analysis using Biacore Insight software. Affinity and binding kinetic parameters were determined by global fitting using the 1:1 interaction model with a term for mass-transport included.

SMARCA2 = SMARCA2 (Homo sapiens, UniProt P51531); experiment: SMARCA2 capillary electrophoresis protein assay in other cell lines (A549, NCI-H1568, HCT116, LU99, HCC-364, HCT-15, HCC4006, SK-N-AS); assay type: cell-based; design: endogenous in cells; host or cells: RKO, NCI-H1568, A549, HCT116, LU99, HCC-364, HCT-15, HCC4006, SK-N-AS
Protocol: 130,000–200,000 cells were seeded in 24-well plates and incubated until settled down or overnight. Compounds were dissolved in DMSO and added to cells in indicated concentrations using a digital dispenser following an optional media change. Cells were incubated for 4 or 18 h as indicated. For SMARCA2/4 half-life determination, 150,000 or 200,000 cells were seeded in 24-well plates. The next day, 50 µg/ml cycloheximide (Sigma) was added and cells were incubated for 1–24 h. For SMARCA2/4 re-synthesis measurements, 200,000 cells were seeded in 24-well plates. The next day, 100 nM compound 6 was added for 4 h to degrade SMARCA2/4, and a sample was taken as baseline for normalisation. To allow re-synthesis, a VHL binder (compound 32, 25 or 50 µM) was then added for 3 or 24 h. Medium was removed, cells were washed with PBS and lysed with 80 µl Lysis Buffer (MSD Tris Lysis Buffer (#R60TX-2) + Halt Inhibitor Cocktail (100x) + Benzonase 0.5 µL/ml). Samples were frozen at −80 °C and thawed at room temperature before use. Samples were transferred to a V-bottom plate and insoluble debris was pelleted by centrifugation for 5 min at maximum speed. The supernatant was transferred to a fresh plate. Master Mix and Ladder were prepared according to manufacturer’s instructions for 12–230 kDa Wes Separation Module, 8 × 25 capillary cartridges, Protein Simple #SM-W004 with Anti-Rabbit Detection Module for Wes, Peggy Sue or Sally Sue, Protein Simple #DM-001. 4.8 µl lysate were mixed with 1.2 µl Master Mix to achieve a protein concentration of ~0.5 µg/µl. Antibodies were diluted in Antibody Diluent II (SMARCA2 Sigma #HPA029981 RRID:AB_10602406 1:25–100, SMARCA4 Cell Signalling #49360 clone D1Q7F RRID:AB_2728743 1:15–120 or Abcam #ab110641 clone EPNCIR111A RRID:AB_10861578 1:60, GAPDH Abcam #ab9485 RRID:AB_307275 1:250). Wes plates were prepared and run according to manufacturer’s instructions. Proteins were quantified with accompanying Compass Software. SMARCA2/4 protein levels were normalised to GAPDH. […] Where applicable, curves were fitted using a 4-parametric logistic model.

Plasma protein binding = assay type: in vitro ADME; settings: for fraction unbound at 5 h, 3 µmol/L: bovine, read-out: PPB fu 10% Calf; for PPB fu 10% Calf / fraction unbound at 5 h, 3 µmol/L: 10% calf
Protocol: Binding of compound to plasma proteins was determined by equilibrium dialysis of 3 µmol/L compound in plasma (or plasma dilutions in PBS) against PBS through an 8 kDa molecular-weight cut-off cellulose membrane (RED device, Thermo Fisher) at 37 °C for 5 h. After incubation, aliquots from donor and acceptor compartments were precipitated and the concentrations in the supernatants were determined by quantitative LC-MS/MS. Calibration and quality control samples were prepared using blank plasma and internal standard. The fraction unbound was calculated as ratio of the compound concentration in the acceptor compartment to the concentration in the donor compartment.

[2] = ternary complex with SMARCA4BD, mean ± SD
[3] = NCI-H1568 (4 h), mean ± SD, read-out: SMARCA2 DC50
[4] = NCI-H1568, 4h, individual replicates, read-out: NCI-H1568 (4h) SMARCA2 DC50
[5] = pH 4.5, aqueous buffer, pH 4.5, read-out: Solubility pH 4.5
[6] = pH 6.8, aqueous buffer, pH 6.8, read-out: Solubility pH 6.8

Sequence of VCB: PROTAC: SMARCA4^BD ternary complex (P40337 54-213): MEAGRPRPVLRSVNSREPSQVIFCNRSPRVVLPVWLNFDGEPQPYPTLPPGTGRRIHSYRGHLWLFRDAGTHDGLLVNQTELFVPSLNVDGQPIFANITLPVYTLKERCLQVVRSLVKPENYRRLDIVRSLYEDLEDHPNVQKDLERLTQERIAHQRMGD
Sequence of VCB: PROTAC: SMARCA4^BD ternary complex (Q15369 17-112 partner limits assumed): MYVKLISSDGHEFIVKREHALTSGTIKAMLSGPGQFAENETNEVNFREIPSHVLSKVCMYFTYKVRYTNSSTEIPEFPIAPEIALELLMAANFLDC
Sequence of VCB: PROTAC: SMARCA4^BD ternary complex (Q15370 1-104 partner limits assumed): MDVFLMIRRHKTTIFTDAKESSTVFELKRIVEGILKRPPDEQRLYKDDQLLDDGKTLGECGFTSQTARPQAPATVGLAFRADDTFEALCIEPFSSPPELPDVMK
Sequence of VCB: PROTAC: SMARCA4^BD ternary complex (P51532 1448-1569): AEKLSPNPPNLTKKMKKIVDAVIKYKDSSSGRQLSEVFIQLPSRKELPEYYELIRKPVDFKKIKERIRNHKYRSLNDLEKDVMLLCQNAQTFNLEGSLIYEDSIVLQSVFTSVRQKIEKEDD
Sequence of SMARCA2 (P51531 whole entry): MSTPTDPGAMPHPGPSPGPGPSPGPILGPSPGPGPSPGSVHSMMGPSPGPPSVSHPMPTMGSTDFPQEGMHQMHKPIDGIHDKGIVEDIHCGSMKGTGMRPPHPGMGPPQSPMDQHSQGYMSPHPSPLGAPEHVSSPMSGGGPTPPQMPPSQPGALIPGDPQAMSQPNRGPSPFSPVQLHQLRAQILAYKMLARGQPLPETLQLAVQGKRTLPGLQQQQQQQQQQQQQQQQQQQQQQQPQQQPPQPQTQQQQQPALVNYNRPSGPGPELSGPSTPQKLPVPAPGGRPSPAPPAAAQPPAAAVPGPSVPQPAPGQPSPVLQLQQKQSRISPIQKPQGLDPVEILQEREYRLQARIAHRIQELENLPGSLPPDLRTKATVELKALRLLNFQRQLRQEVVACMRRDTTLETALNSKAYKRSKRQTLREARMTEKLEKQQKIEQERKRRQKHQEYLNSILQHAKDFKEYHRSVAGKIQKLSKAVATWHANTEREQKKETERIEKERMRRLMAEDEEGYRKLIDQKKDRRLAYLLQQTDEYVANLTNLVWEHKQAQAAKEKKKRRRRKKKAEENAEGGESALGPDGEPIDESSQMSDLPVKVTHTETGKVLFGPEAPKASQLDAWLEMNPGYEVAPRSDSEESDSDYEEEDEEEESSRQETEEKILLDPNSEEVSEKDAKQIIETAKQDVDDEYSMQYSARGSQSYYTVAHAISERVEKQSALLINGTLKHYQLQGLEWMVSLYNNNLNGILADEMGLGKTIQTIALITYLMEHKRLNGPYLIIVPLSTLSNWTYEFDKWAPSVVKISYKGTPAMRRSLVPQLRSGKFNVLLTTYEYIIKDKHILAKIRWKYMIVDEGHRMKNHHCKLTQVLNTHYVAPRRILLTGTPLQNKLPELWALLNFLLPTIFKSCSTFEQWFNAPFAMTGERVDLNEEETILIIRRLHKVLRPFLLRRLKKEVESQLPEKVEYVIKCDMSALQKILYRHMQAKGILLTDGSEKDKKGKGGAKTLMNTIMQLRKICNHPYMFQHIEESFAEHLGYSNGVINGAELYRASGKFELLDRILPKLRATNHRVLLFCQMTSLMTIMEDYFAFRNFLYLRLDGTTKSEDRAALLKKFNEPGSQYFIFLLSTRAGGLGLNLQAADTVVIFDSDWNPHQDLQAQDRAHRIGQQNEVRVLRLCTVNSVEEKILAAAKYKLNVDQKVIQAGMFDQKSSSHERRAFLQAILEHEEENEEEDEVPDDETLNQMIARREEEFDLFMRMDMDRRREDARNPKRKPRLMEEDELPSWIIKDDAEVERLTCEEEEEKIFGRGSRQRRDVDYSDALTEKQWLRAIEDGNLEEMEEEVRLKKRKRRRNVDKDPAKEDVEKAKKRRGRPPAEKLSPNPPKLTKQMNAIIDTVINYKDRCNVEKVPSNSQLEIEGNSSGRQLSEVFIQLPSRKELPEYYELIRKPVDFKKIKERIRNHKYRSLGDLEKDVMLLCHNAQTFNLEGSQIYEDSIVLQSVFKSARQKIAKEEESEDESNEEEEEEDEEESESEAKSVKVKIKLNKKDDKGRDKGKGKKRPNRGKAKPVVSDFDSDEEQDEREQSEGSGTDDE

Compound	Solubility pH 4.5 (Solubility testing; pH 4.5)	Solubility pH 6.8 (Solubility testing; pH 6.8)	Kd [1, 2] [nM]	Kd ([1]; ternary, individual replicates)	alpha [1]	solubility at 24 h (Solubility testing; [5]) [µg/mL]	solubility at 24 h (Solubility testing; [6]) [µg/mL]	also measured
CN1CCN(c2nc(=O)c3c(Cl)cccc3o2)CC1 [compound 13]	>70.000 ug/mL	>71.000 ug/mL						
Cc1ncsc1-c1ccc(CNC(=O)[C@@H]2C[C@@H](O)CN2C(=O)[C@@H](NC(=O)C2(F)CC2)C(C)(C)C)c(OCCCCN2CCC(c3ccc4c(c3)n(C3CCCC3)c3nc(=O)c5c(Br)cccc5n43)CC2)c1 [compound 23]	<1.000 ug/mL	<1.000 ug/mL	84 ± 1	84.3 nM and 82.7 nM and 85 nM	0.2			
Cc1ncsc1-c1ccc(CNC(=O)[C@@H]2C[C@@H](O)CN2C(=O)[C@@H](NC(=O)C2(F)CC2)C(C)(C)C)c(OCCOCCOCCN2CCC(c3ccc4c(c3)n(C3CCCC3)c3nc(=O)c5c(Br)cccc5n43)CC2)c1 [compound 21]	200.000 ug/mL and 180.000 ug/mL and 190.000 ug/mL		16 ± 11	28 nM and 7.74 nM and 13 nM	1.3			
CN1CCC(c2ccc3c(c2)n(C2CCCC2)c2nc(=O)c4c(Br)cccc4n32)CC1 [compound 3]	> 100.000 ug/mL	> 110.000 ug/mL and 94.000 ug/mL				> 110	> 100	DC50 (SMARCA2; [3]): > 2500 nM; DC50 (SMARCA2; [4]): > 2500 nM
Cc1ncsc1-c1ccc([C@H](CCC(C)(C)CCN2CCC(c3ccc4c(c3)n(C3CCCC3)c3nc(=O)c5c(Br)cccc5n43)CC2)NC(=O)[C@@H]2C[C@@H](O)CN2C(=O)[C@@H](NC(=O)C2(F)CC2)C(C)(C)C)cc1 [compound 30]	<1.000 ug/mL	<1.000 ug/mL	45 ± 6	41.2 nM and 41.8 nM and 51.4 nM	0.6			PPB fu 10% Calf (Plasma protein binding): <0.071%; PPB fu 10% Calf (Plasma protein binding; fraction unbound): <0.07%
Cc1ncsc1-c1ccc([C@H](CC[C@H](C)CCN2CCC(c3ccc4c(c3)n(C3CCCC3)c3nc(=O)c5c(Br)cccc5n43)CC2)NC(=O)[C@@H]2C[C@H](O)CN2C(=O)[C@@H](NC(=O)C2(F)CC2)C(C)(C)C)cc1 [compound 12]						< 1	< 1	
Cc1ncsc1-c1ccc([C@H](COCCCN2CCC(c3ccc4c(c3)n(C3CCCC3)c3nc(=O)c5c(Br)cccc5n43)CC2)NC(=O)[C@@H]2C[C@@H](O)CN2C(=O)[C@@H](NC(=O)C2(F)CC2)C(C)(C)C)cc1 [compound 27]	<1.000 <1.000 ug/mL	<1.000 <1.000 ug/mL	18 ± 1	16.7 nM and 17.5 nM and 19.5 nM	0.7			
Cc1ncsc1-c1ccc(CNC(=O)[C@@H]2C[C@H](O)CN2C(=O)[C@@H](NC(=O)C2(F)CC2)C(C)(C)C)c(OCCN2CCC(c3ccc4c(c3)n(C3CCCC3)c3nc(=O)c5c(Br)cccc5n43)CC2)c1 [compound 19]	<1.000 ug/mL	<1.000 ug/mL						
Cc1ncsc1-c1ccc([C@H](CC[C@@H](C)CCN2CCC(c3ccc4c(c3)n(C3CCCC3)c3nc(=O)c5c(Br)cccc5n43)CC2)NC(=O)[C@@H]2C[C@@H](O)CN2C(=O)[C@@H](NC(=O)C2(F)CC2)C(C)(C)C)cc1 [compound 29]	<1.000 <1.000 ug/mL	<1.000 <1.000 ug/mL	11 ± 1	11.5 nM (2×) and 9.84 nM	1.1			PPB fu 10% Calf (Plasma protein binding): <0.144%; PPB fu 10% Calf (Plasma protein binding; fraction unbound): <0.14%; PPB fu 10% Human (Plasma protein binding; 10% human): <0.052%; PPB fu 10% Mouse (Plasma protein binding; 10% mouse): <0.335%; PPB fu 10% Rat (Plasma protein binding; 10% rat): <0.272%; PPB fu Human (Plasma protein binding; human, fraction unbound): <0.05%; PPB fu Mouse (Plasma protein binding; mouse, fraction unbound): <0.34%; PPB fu Rat (Plasma protein binding; rat, fraction unbound): <0.27%
Cc1ncsc1-c1ccc([C@H](COC(C)CN2CCC(c3ccc4c(c3)n(C3CCCC3)c3nc(=O)c5c(Br)cccc5n43)CC2)NC(=O)[C@@H]2C[C@@H](O)CN2C(=O)[C@@H](NC(=O)C2(N(C)C)CC2)C(C)(C)C)cc1 (some centres unmarked) [compound 10]		2.000 ug/mL	172 ± 115	305 nM and 102 nM and 109 nM	0.7	210 (≈ 195 µM)	< 1	fraction unbound at 5 h, 3 µmol/L (Plasma protein binding; 10% calf plasma dilution in PBS, fraction unbound): 0.05; fraction unbound at 5 h, 3 µmol/L (Plasma protein binding; 10% plasma (plasma dilution in PBS)): 0.0548
Nc1cccc2c1c(=O)nc1n(C3CCCC3)c3ccccc3n21 [compound 2]						< 1	< 1	
O=c1nc2n(C3CCCC3)c3ccccc3n2c2cccc(Br)c12 [compound 1]						< 1	< 1	
CN1CCN(c2nc(=O)c3c(I)cccc3o2)CC1 [compound 16]	>97.000 ug/mL	>97.000 ug/mL						
CN1CCN(c2nc(=O)c3c(Br)cccc3o2)CC1 [compound 15]	>83.000 ug/mL	>82.000 ug/mL						
Cc1ncsc1-c1ccc([C@H](COCCN2CCC(c3ccc4c(c3)n(C3CCCC3)c3nc(=O)c5c(Br)cccc5n43)CC2)NC(=O)[C@@H]2C[C@@H](O)CN2C(=O)[C@@H](NC(=O)C2(N(C)C)CC2)C(C)(C)C)cc1 [compound 26]			116 ± 16	105 nM and 109 nM and 135 nM	0.7	200 (≈ 188 µM)	< 1	
Cc1ncsc1-c1ccc(CNC(=O)[C@@H]2C[C@@H](O)CN2C(=O)[C@@H](NC(=O)C2(F)CC2)C(C)(C)C)c(OCCN2CCC(c3ccc4c(c3)n(C3CCCC3)c3nc(=O)c5c(Br)cccc5n43)CC2)c1 [compound 20]	<1.000 <1.000 <1.000 <1.000 <1.000 ug/mL	<1.000 <1.000 <1.000 <1.000 <1.000 ug/mL	67 ± 3	67.7 nM and 69.3 nM and 63.7 nM	0.1			DC50 (SMARCA2; [3]): > 2500 nM; DC50 (SMARCA2; [4]): > 2500 nM
Cc1ncsc1-c1ccc(CNC(=O)[C@@H]2C[C@@H](O)CN2C(=O)[C@@H](NC(=O)C2(F)CC2)C(C)(C)C)c(OCCOCCOCCOCCN2CCC(c3ccc4c(c3)n(C3CCCC3)c3nc(=O)c5c(Br)cccc5n43)CC2)c1 [compound 22]			26 ± 2	24.6 nM and 23.9 nM and 28 nM	1.5			
